Results published in US12371428B2 (Exelixis, Inc., priority 2019, dated 2025).

Legend:
[1] = biological target: Mer (phospho-Mer, MERTK-transfected 293A cells) (Homo sapiens (Human), UniProt Q12866); experiment: Mer autophosphorylation ELISA in transient transfected 293A cells (Example H); format: cell-based; details: cellular activity; Mer autophosphorylation ELISA in transient transfected 293A cells
In short: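 293A cells transiently transfected with human MERTK were treated 1 h in serum-free medium with an 8-point compound dilution (0.3% DMSO final). Lysates were assayed by phospho-Mer sandwich ELISA against a phospho-Mer standard; IC50 came from a 4-parameter logistic fit, normalised to DMSO (100%) and reference-inhibitor (0%) controls.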

[2] = biological target: Human MET (residues 956-1390) (Homo sapiens (Human), UniProt P08581); experiment: Human Met kinase assay, HTRF KinEase (Example D-2); format: biochemical; details: protocol of Example D-2 (other compounds); read-out: c-Met IC50
Human MET (residues 956-1390), sequence (P08581 956-1390): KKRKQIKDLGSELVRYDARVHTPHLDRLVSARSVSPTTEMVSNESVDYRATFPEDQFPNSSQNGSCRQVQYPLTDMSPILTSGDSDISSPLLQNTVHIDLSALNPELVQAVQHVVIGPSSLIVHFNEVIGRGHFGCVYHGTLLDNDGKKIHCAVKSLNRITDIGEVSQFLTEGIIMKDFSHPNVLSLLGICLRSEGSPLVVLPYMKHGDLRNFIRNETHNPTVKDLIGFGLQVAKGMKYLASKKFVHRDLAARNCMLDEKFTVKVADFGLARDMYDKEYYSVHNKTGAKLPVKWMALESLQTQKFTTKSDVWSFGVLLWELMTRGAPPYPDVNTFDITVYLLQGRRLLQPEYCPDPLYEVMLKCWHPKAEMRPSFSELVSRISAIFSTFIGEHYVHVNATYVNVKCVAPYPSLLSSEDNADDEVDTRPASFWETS
In short: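 MET kinase domain (956-1390), 0.1 ng/well, in buffer with 5 mM MgCl2, 1 mM DTT and 1 mM MnCl2, phosphorylated a biotinylated peptide at ATP Km for 40 min at RT; 10 concentrations, 3% DMSO final. EDTA-stopped HTRF read after 60 min; IC50 from a 4-parameter logistic fit.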

Mer (phospho-Mer, MERTK-transfected 293A cells), sequence (Q12866 21-999): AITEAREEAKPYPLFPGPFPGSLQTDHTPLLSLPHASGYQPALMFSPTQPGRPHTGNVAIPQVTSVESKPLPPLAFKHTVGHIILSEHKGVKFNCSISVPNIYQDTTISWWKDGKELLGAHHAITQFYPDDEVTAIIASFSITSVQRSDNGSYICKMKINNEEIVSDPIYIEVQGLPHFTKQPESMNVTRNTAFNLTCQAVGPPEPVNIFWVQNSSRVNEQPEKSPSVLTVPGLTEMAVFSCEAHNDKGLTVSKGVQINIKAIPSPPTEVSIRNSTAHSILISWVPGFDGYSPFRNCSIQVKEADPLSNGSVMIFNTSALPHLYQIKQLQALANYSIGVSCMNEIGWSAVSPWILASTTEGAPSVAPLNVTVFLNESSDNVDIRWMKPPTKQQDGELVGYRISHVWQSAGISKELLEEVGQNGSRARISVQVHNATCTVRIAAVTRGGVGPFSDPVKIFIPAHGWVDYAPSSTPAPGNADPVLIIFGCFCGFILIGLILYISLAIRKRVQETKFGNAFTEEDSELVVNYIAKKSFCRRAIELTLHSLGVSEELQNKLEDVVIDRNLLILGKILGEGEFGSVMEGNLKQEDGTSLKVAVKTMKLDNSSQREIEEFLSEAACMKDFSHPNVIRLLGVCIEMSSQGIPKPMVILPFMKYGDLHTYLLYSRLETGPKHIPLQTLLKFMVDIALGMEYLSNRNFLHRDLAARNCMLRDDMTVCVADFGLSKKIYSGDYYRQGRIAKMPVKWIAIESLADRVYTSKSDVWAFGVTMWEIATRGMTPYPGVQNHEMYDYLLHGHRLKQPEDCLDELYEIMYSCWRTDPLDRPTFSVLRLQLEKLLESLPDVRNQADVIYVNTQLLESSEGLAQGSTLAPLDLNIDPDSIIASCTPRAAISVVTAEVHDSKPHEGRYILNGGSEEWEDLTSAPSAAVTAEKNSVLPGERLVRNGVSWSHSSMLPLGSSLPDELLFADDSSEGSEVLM

Compound | IC50 [1] | IC50 [2]
Cc1cc(F)ccc1-c1c(C)nc(C)c(C(=O)Nc2ccc(Oc3ccnc4cc(C)c(F)nc34)c(F)c2)c1O [Compound 428, N-[3-fluoro-4-[(6-fluoro-7-methyl-1,5-naphthyridin-4-yl)oxy]phenyl]-5-(4-fluoro-2-methylphenyl)-4-hydroxy-2,6-dimethylpyridine-3-carboxamide] | < 100 nM | < 100 nM
Cc1cc(F)ccc1-c1c(C)n(C)cc(C(=O)Nc2ccc(Oc3ccnc4cc(C)c(F)nc34)c(F)c2)c1=O [Compound 429, N-[3-fluoro-4-[(6-fluoro-7-methyl-1,5-naphthyridin-4-yl)oxy]phenyl]-5-(4-fluoro-2-methylphenyl)-1,6-dimethyl-4-oxopyridine-3-carboxamide] | < 100 nM | < 100 nM
COc1nc2c(Oc3ccc(NC(=O)c4c(C)nc(C)c(-c5ccc(F)cc5)c4O)cc3F)ccnc2cc1O [Compound 431, N-[3-fluoro-4-[(7-hydroxy-6-methoxy-1,5-naphthyridin-4-yl)oxy]phenyl]-5-(4-fluorophenyl)-4-hydroxy-2,6-dimethylpyridine-3-carboxamide] | < 100 nM | < 100 nM
COc1cc2nccc(Oc3ccc(NC(=O)c4cn(C5CC5)c(C)c(-c5ccc(F)cc5)c4=O)cc3F)c2nc1OC [Compound 433, 1-cyclopropyl-N-[4-[(6,7-dimethoxy-1,5-naphthyridin-4-yl)oxy]-3-fluorophenyl]-5-(4-fluorophenyl)-6-methyl-4-oxopyridine-3-carboxamide] | < 100 nM | < 100 nM
COc1cc2nccc(Oc3ccc(NC(=O)c4cn(C5CC5)c(C)c(-c5ccc(F)cc5C)c4=O)cc3F)c2nc1OC [Compound 439, 1-cyclopropyl-N-[4-[(6,7-dimethoxy-1,5-naphthyridin-4-yl)oxy]-3-fluorophenyl]-5-(4-fluoro-2-methylphenyl)-6-methyl-4-oxopyridine-3-carboxamide] | < 100 nM | 100 to 300 nM
COc1ccc2nccc(Oc3ccc(NC(=O)c4cn(C5CC5)c(C)c(-c5ccc(F)cc5C)c4=O)cc3F)c2n1 [Compound 441, 1-cyclopropyl-N-[3-fluoro-4-[(6-methoxy-1,5-naphthyridin-4-yl)oxy]phenyl]-5-(4-fluoro-2-methylphenyl)-6-methyl-4-oxopyridine-3-carboxamide] | < 100 nM | 100 to 300 nM
COc1cc2nccc(Oc3ccc(NC(=O)c4c(C)nc(O)c(-c5ccc(F)cc5)c4O)cc3F)c2nc1OC [Compound 443, N-[4-[(6,7-dimethoxy-1,5-naphthyridin-4-yl)oxy]-3-fluorophenyl]-5-(4-fluorophenyl)-4,6-dihydroxy-2-methylpyridine-3-carboxamide] | < 100 nM | < 100 nM

The next lines start with the values.

IC50 [1] | IC50 [2] | Compound
< 100 nM | < 100 nM | Cc1cc(F)ccc1-c1c(C)nnc(C(=O)Nc2ccc(Oc3ccnc4cc(C)c(F)nc34)c(F)c2)c1O [Compound 430, N-[3-fluoro-4-[(6-fluoro-7-methyl-1,5-naphthyridin-4-yl)oxy]phenyl]-5-(4-fluoro-2-methylphenyl)-4-hydroxy-6-methylpyridazine-3-carboxamide]
< 100 nM | < 100 nM | COCCOc1cc2nccc(Oc3ccc(NC(=O)c4c(C)nc(C)c(-c5ccc(F)cc5)c4O)cc3F)c2nc1OC [Compound 432, N-[3-fluoro-4-[[6-methoxy-7-(2-methoxyethoxy)-1,5-naphthyridin-4-yl]oxy]phenyl]-5-(4-fluorophenyl)-4-hydroxy-2,6-dimethylpyridine-3-carboxamide]
< 100 nM | < 100 nM | COc1cc2nccc(Oc3ccc(NC(=O)c4cn(C5CC5)c(C)c(-c5ccc(F)cc5)c4=O)cc3)c2nc1OC [Compound 434, 1-cyclopropyl-N-[4-[(6,7-dimethoxy-1,5-naphthyridin-4-yl)oxy]phenyl]-5-(4-fluorophenyl)-6-methyl-4-oxopyridine-3-carboxamide]
< 100 nM | < 100 nM | COc1ccc2nccc(Oc3ccc(NC(=O)c4cn(C5CC5)c(C)c(-c5ccc(F)cc5)c4=O)cc3F)c2n1 [Compound 435, 1-cyclopropyl-N-[3-fluoro-4-[(6-methoxy-1,5-naphthyridin-4-yl)oxy]phenyl]-5-(4-fluorophenyl)-6-methyl-4-oxopyridine-3-carboxamide]
< 100 nM | < 100 nM | COCCOc1nc2c(Oc3ccc(NC(=O)c4cnc(C)c(-c5ccc(F)cc5)c4O)cc3F)ccnc2cc1C [Compound 436, N-[3-fluoro-4-[[6-(2-methoxyethoxy)-7-methyl-1,5-naphthyridin-4-yl]oxy]phenyl]-5-(4-fluorophenyl)-4-hydroxy-6-methylpyridine-3-carboxamide]
< 100 nM | < 100 nM | COCCOc1nc2c(Oc3ccc(NC(=O)c4cnc(C)c(-c5ccc(F)cc5)c4O)cc3)ccnc2cc1C [Compound 437, 5-(4-fluorophenyl)-4-hydroxy-N-[4-[[6-(2-methoxyethoxy)-7-methyl-1,5-naphthyridin-4-yl]oxy]phenyl]-6-methylpyridine-3-carboxamide]
< 100 nM | < 100 nM | Cc1cc2nccc(Oc3ccc(NC(=O)c4cnc(C)c(-c5ccc(F)cc5)c4O)cc3F)c2nc1OCCCN1CCOCC1 [Compound 438, N-[3-fluoro-4-[[7-methyl-6-(3-morpholin-4-ylpropoxy)-1,5-naphthyridin-4-yl]oxy]phenyl]-5-(4-fluorophenyl)-4-hydroxy-6-methylpyridine-3-carboxamide]
< 100 nM | < 100 nM | COc1cc2nccc(Oc3ccc(NC(=O)c4cn(C5CC5)c(C)c(-c5ccc(F)cc5C)c4=O)cc3)c2nc1OC [Compound 440, 1-cyclopropyl-N-[4-[(6,7-dimethoxy-1,5-naphthyridin-4-yl)oxy]phenyl]-5-(4-fluoro-2-methylphenyl)-6-methyl-4-oxopyridine-3-carboxamide]
< 100 nM | < 100 nM | COc1cc2nccc(Oc3ccc(NC(=O)c4c(C)nc(OC)c(-c5ccc(F)cc5)c4O)cc3F)c2nc1OC [Compound 442, N-[4-[(6,7-dimethoxy-1,5-naphthyridin-4-yl)oxy]-3-fluorophenyl]-5-(4-fluorophenyl)-4-hydroxy-6-methoxy-2-methylpyridine-3-carboxamide]
